# In patent publication US11655308B2, “HM-3 fusion protein and application thereof” (TASLY BIOPHARMACEUTICALS CO., LTD., priority 2017, dated 2023):
# How the values were obtained:
# [1] = system: Rat chondrocyte; assay: Influence of TSL-4 on viability of chondrocytes (MTT); assay type: cell-based; set-up: key to MTT test value: absorbance at 570 nm (MTT)
# Description: At the end of incubation according to the experimental plan, 10 μL of 5 mg/ml MTT was added to each experimental group based upon 1/10 of the cell culture volume, so that the cells were incubated with MTT in the incubator for 4 hours. Afterwards, supernatant was carefully discarded, and 200 μL of dimethyl sulfoxide (DMSO) was added for mixing well, then the absorbance was measured on a microplate reader at a test wavelength of 570 nm. Calculating formula of relative cell activity ratio (%): a mean value of the absorbance (per well) in the experimental group/the absorbance in the control group multiplies by 100%. […] The difference between each group was analyzed by Prism 7.0, and tested by one-way ANOVA. *P<0.05 means statistical difference, **P<0.01 means significant statistical difference, and […] means extremely significant statistical difference.
# The concentration of TSL-4 should be selected within 0.1, 0.3, 1, 3, 9, 27 μM.
# In early experiment, the TSL-4 at each concentration had no effect on cell viability, therefore, it was diluted to 0.23 μM from 29.3 μM according to a dilution ratio of 1:5 based upon the concentration (293 μM) of the primary TSL-4 solution.
# [2] = system: type-II CIA mice; assay: Chronic inflammation model of type-II CIA in mice; assay type: in vivo, Balb/c mice; settings: for ankle width / arthritis scoring / paw circumference / weight of mice / paw weight / spleen weight: day 60; for ankle width: model G2 4.83±0.20; for arthritis scoring: model G2 11.5±1.7; for paw circumference: model G2 13.62; for weight of mice: model G2 19.5±1.6; for paw weight: model G2 219.3±20.6; for spleen weight: model G2 114.6±14.5
# Description: Experimental method: Balb/c mice were taken and immunized for the first time. The concentration of type-II bovine collagen was 4 mg/mL. On the day of the experiment (day 0), complete Freund's adjuvant (CFA) and CII solution were mixed evenly in equal volume and emulsified. Excepting for the normal control group of Balb/c mice, mice in each group were sensitized by intracutaneous injection of 50 μL emulsifier at the end of tails. 21 days later, mice were re-immunized with the same dose of emulsifier at the end of tails, and incomplete Freund's adjuvant (IFA) served as an adjuvant at this time. Redness and swelling other arthritic symptoms appeared on toe joints of mice models approximately on the 29th day of the experiment, indicating successful modeling.
# Animals in the modeling group on the 30th day of the experiment were randomly divided into:
# There were 12 groups in total, and there were 8 pieces of mice in remaining each group excepting for 12 pieces in G1 (normal control group) and G2 (model group).
# Measurement of mice weight: mice were weighed by an electronic balance every two days.
# Measurement of sole thickness: the thickness of left, right and hind soles for each mouse was measured by a vernier caliper every two days.
# Measurement of ankle joint width: the width of left and right ankle joints for each mouse was measured by vernier caliper every two days.
# Arthritis index (AI) score: the severity of arthritis for each mouse was evaluated by a paw joint scoring method. 0: no redness and swelling; 1: redness and swelling of little toe joints; 2: redness and swelling of toe joints and toes; 3: redness and swelling of the portion below ankle joints; 4: redness and swelling of toe joints, toes and ankle joints. Scoring was performed once every two days until the end of the experiment.
# Blood was collected from the orbit and serum was separated. After mice were killed by cervical dislocation, spleen and thymus were separated and weighed to calculate a spleen coefficient, and then the spleen and thymus were fixed in formalin stationary liquid.
# [3] = G6 TSL-4 50 mg/kg SC 1 time/5 d, 3 times
# [4] = G7 TSL-4 25 mg/kg SC 1 time/5 d, 3 times
# [5] = G8 TSL-4 25 mg/kg SC 1 time/7 d, 2 times
# [6] = G10 TSL-4 12.5 mg/kg SC 1 time/5 d, 3 times
substance,measurement,setting,value
mIgG4-Fc-(GGGGS)3-HM-3 [TSL-4],MTT test value,"[1]; 0.1 μM TSL-4, 24 h (Table 24, low-dose), 0 μM 1.23",1.26
same,MTT test value,"[1]; 0.23 μM TSL-4, 24 h (Table 25), 0 μM 1.68",1.59
same,MTT test value,"[1]; 0.3 μM TSL-4, 24 h (Table 24, low-dose), 0 μM 1.23",1.2
same,MTT test value,"[1]; 1 μM TSL-4, 24 h (Table 23), 0 μM 1.43",1.59
same,MTT test value,"[1]; 1 μM TSL-4, 24 h (Table 24, low-dose), 0 μM 1.23",1.15
same,MTT test value,"[1]; 1 μM TSL-4, 48 h (Table 23), 0 μM 1.70",1.43
same,MTT test value,"[1]; 1 μM TSL-4, 72 h (Table 23), 0 μM 1.51",1.61
same,MTT test value,"[1]; 1.17 μM TSL-4, 24 h (Table 25), 0 μM 1.68",1.4
same,MTT test value,"[1]; 3 μM TSL-4, 24 h (Table 23), 0 μM 1.43",1.67
same,MTT test value,"[1]; 3 μM TSL-4, 24 h (Table 24, low-dose), 0 μM 1.23",1.08
same,MTT test value,"[1]; 3 μM TSL-4, 48 h (Table 23), 0 μM 1.70",1.43
same,MTT test value,"[1]; 3 μM TSL-4, 72 h (Table 23), 0 μM 1.51",1.52
same,MTT test value,"[1]; 5.86 μM TSL-4, 24 h (Table 25), 0 μM 1.68",1.39
same,MTT test value,"[1]; 9 μM TSL-4, 24 h (Table 23), 0 μM 1.43",1.72
same,MTT test value,"[1]; 9 μM TSL-4, 48 h (Table 23), 0 μM 1.70",1.51
same,MTT test value,"[1]; 9 μM TSL-4, 72 h (Table 23), 0 μM 1.51",1.57
same,MTT test value,"[1]; 27 μM TSL-4, 24 h (Table 23), 0 μM 1.43",1.45
same,MTT test value,"[1]; 27 μM TSL-4, 48 h (Table 23), 0 μM 1.70",1.30
same,MTT test value,"[1]; 27 μM TSL-4, 72 h (Table 23), 0 μM 1.51",1.31
same,MTT test value,"[1]; 29.3 μM TSL-4, 24 h (Table 25), 0 μM 1.68",1.24
same,influence on cell viability,"[1]; 0.1-3 μM TSL-4, 24 h",no significant difference
same,influence on cell viability,"[1]; 0.23-29.3 μM TSL-4, 24 h",no significant change in cell viability
same,influence on cell viability,"[1]; 1-27 μM TSL-4, 24, 48 and 72 hours",no significant influence on cell viability
same,ankle width,[2]; [3],3.96±0.09 mm
same,arthritis scoring,[2]; [3],6.5±1.1
same,paw circumference,[2]; [3],10.80±0.26 mm
same,weight of mice,[2]; [3],20.8 ± 1.8 g
same,paw weight,[2]; [3],176.2 ± 8.9 mg
same,ankle width,[2]; [4],3.98±0.08 mm
same,arthritis scoring,[2]; [4],6.6±1.1
same,paw circumference,[2]; [4],10.87±0.14 mm
same,weight of mice,[2]; [4],21.1 ± 1.6 g
same,spleen weight,[2]; [4],95.1 ± 9.5 mg
same,paw weight,[2]; [4],176.4 ± 9.7 mg
same,ankle width,[2]; [5],4.00±0.16 mm
same,arthritis scoring,[2]; [5],7.1±0.6
same,paw circumference,[2]; [5],10.97±0.32 mm
same,weight of mice,[2]; [5],20.8 ± 1.7 g
same,spleen weight,[2]; [5],95.8 ± 11.4 mg
same,paw weight,[2]; [5],177.1 ± 7.8 mg
same,ankle width,[2]; [6],4.26±0.13 mm
same,arthritis scoring,[2]; [6],8.6±1.8
same,paw circumference,[2]; [6],11.64±0.19 mm
same,weight of mice,[2]; [6],21.5 ± 1.5 g
same,spleen weight,[2]; [6],97.5 ± 5.1 mg
same,therapeutic effect compared with group G3 (positive Adalimumab group),"[2]; groups G4 (HM-3), G10 (TSL-4 12.5 mg/kg once for 5 days, 3 times)",slightly lower than that of the group G3
same,therapeutic effect compared with group G3 (positive Adalimumab group),"[2]; groups G5 (mPEG-SC-HM-3), G6, G7, G8 (TSL-4)",better than the group G3
